Reference: PMC3189933, “Acylpeptide Hydrolase Inhibition as Targeted Strategy to Induce Proteasomal Down-Regulation” (PLoS ONE, 2011)

Key:
APEHSs = test: Inhibition of S. solfataricus APEH (APEHSs), Ac-Leu-pNA substrate; assay type: biochemical, Sulfolobus solfataricus
Experimental: (§1) APEH activity was expressed in IU.
(§2) Protease inhibitor activities of the SsCEI peptides and the CLA isomers were carried out using a fixed amount of APEH or partially purified proteasome (3–5 nM and 0.12 mg/mL, respectively), and increasing the SsCEI and CLA isomer concentrations. Mixtures were pre-incubated for 30 min at 37°C before the addition of the substrate, and the enzymatic activities were followed as described above. Protease inhibitor activities of the SsCEI peptides and the CLA isomers were determined towards APEHSs. The protease and increasing concentrations of the inhibitors were mixed and preincubated for 30 min at 80°C before the addition of the specific substrate. The residual enzymatic activity was determined using the assay procedure described above.
(§3) All data were obtained from triplicate analyses of three different preparations. Data were presented as means ±S.D. Statistical analysis and IC50 values were calculated with the SigmaPlot 10.0 software through a non-linear curve-fitting method and using a simple binding isotherm equation. Groups were compared by Student's t test, and P<0.05 was considered as significant.

[1] = test system: proteasome CT-like activity in Caco-2 cells; test: CT-like proteasome activity in Caco-2 cells
Experimental: The synthetic fluorescent substrate N-succinyl-Leu-Leu-Val-Tyr-7-amido-4-methylcoumarin (N-Suc-LLVT-AMC) was used for the measurement of the CT-like activity of the proteasome, at a final concentration of 0.080 mM. The reaction mixture (0.9 mL) containing appropriate amount of proteasome was preincubated as above, in Tris buffer. N-Suc-LLVT-AMC was added, and the release of the fluorescent product (7-AMC) was monitored for 5 min in a Perkin–Elmer LS 50B fluorimeter. The excitation and emission wavelengths were 380 nm and 460 nm, respectively.
Caco-2 cells (ATCC) were cultivated in DMEM supplemented with 10% FBS, 1 mM glutamine and 100 units/mL penicillin-streptomycin at 37°C in a humidified 5% CO2 atmosphere. The cells were studied between passages 12 and 22. The cells were split using trypsin-EDTA solution and plated in 6-well plates at a density of 8×10^4 cells/mL and the medium was replaced every 2–3 days. […]
Following the treatments, the BHK and Caco-2 cells were washed three times with ice cold phosphate-buffered saline and collected immediately at 4°C in lysis buffer (1% Triton X-100, 0.1% SDS, 20 mM Tris-HCl, pH 8.0, 150 mM NaCl, 0.5% sodium deoxycholate and complete protease inhibitors [Roche]). […] The protein concentrations in the clear supernatants were determined (BCA protein assay reagent kit; Pierce) before their use in enzymatic assays or SDS–PAGE.

[2] = test system: caspase-3 in Caco-2 cells; test: Caspase-3 activity in Caco-2 cells; assay type: cell-based, human; conditions: 48 h
Experimental: The pro-apoptotic ability of the peptides and the CLA isomers were assayed by measuring the caspase-3 and caspase-8 activities using fluorometric kits, according to the manufacturer instructions. These assays were based on hydrolysis of the substrate acetyl-Asp-Glu-Val-Asp-7-amido-4-methylcoumarin (Ac-DEVD-AMC) or acetyl-Ile-Glu-Thr-Asp-7-amino-4-methyl coumarin (Ac-IETD-AMC) by caspase-3 and caspase-8, respectively. The release of the 7-AMC moiety in protein extracts prepared from the differently treated cells was evaluated by fluorimetry (excitation 360 nm, emission 460 nm). Their amounts were calculated by means of a standard curve prepared with pure AMC, and following normalisation for protein content, the activities were expressed as nmoles AMC/mg protein/min.

Caco-2 cells = test: LDH release cytotoxicity assay in Caco-2 cells; conditions: 48 h
Experimental: The release of LDH was used as the marker for cell toxicity [48]. The culture supernatants were sampled at the end of the incubations and centrifuged (4,000×g, 5 min, and 4°C). Aliquots of the clear supernatant (10 µL) were incubated with 190 µL reaction buffer (200 mM Tris/HCl, pH 8.0, 0.7 mM p-iodonitrotetrazolium violet, 50 mM L-lactic acid, 0.3 mM phenazine methoxysulphate, 0.4 mM NAD,) for 30 min at 37°C. Absorbance was measured at 490 nm and the results were expressed as percentages of total LDH release from control cultures treated with 1% (w/v) Triton X-100 and calculated as: [(experimental value - blank value)/(total lysis -blank value)−100].

APEH in Caco-2 cells = test: APEH activity in Caco-2 cells; conditions: differentiated Caco-2 cells, 200 µM, 48 h (maximum effect)
Experimental: Porcine liver APEH activity was measured spectrophotometrically using the chromogenic substrate acetyl-Ala-pNA (Bachem). The reaction mixture (1 mL) containing pure APEH (38 ng) or an appropriate amount of cell extract in 50 mM Tris-HCl buffer pH 7.5 (Tris Buffer), was preincubated at 37°C for 2 min. Then, 1 mM acetyl-Ala-pNA was added and the release of p-nitroanilide (ε410 = 8800 M-1 cm-1) was measured by recording the absorbance increase at 410 nm on a Cary 100 Scan (Varian) UV/Vis spectrophotometer, equipped with a thermostated cuvette compartment. APEH activity was expressed in IU. The APEHSs activity was measured using acetyl-Leu-pNA (0.1 mM) (Sigma) as substrate. The reaction mixture (1 mL) containing the appropriate amount of enzyme in 25 mM Tris-HCl buffer pH 7.5, was preincubated at 80°C for 2 min. Then, 0.1 mM acetyl-Leu-pNA was added and the release of p-nitroanilide was measured, following the standard assay procedure described above.
Caco-2 cells (ATCC) were cultivated in DMEM supplemented with 10% FBS, 1 mM glutamine and 100 units/mL penicillin-streptomycin at 37°C in a humidified 5% CO2 atmosphere. The cells were studied between passages 12 and 22. The cells were split using trypsin-EDTA solution and plated in 6-well plates at a density of 8×10^4 cells/mL and the medium was replaced every 2–3 days. Under these conditions, the cells reached visual confluence after 7 days and the differentiated stage two weeks later. The differentiated cells were incubated for 48 h with the different substances.
Following the treatments, the BHK and Caco-2 cells were washed three times with ice cold phosphate-buffered saline and collected immediately at 4°C in lysis buffer (1% Triton X-100, 0.1% SDS, 20 mM Tris-HCl, pH 8.0, 150 mM NaCl, 0.5% sodium deoxycholate and complete protease inhibitors [Roche]). The lysates were centrifuged at 10,000×g for 15 min at 4°C. The protein concentrations in the clear supernatants were determined (BCA protein assay reagent kit; Pierce) before their use in enzymatic assays or SDS–PAGE.

porcine APEH [3] = target: T1, porcine APEH (Sus scrofa, UniProt P19205); test: Inhibition of porcine liver APEH, Ac-Ala-pNA substrate; assay type: biochemical
T1 construct: mammalian APEHs purified from both porcine liver and human colon carcinoma intestinal cells (Caco-2); purchased Takara; host or cells: porcine liver
T1 sequence (P19205 1-732): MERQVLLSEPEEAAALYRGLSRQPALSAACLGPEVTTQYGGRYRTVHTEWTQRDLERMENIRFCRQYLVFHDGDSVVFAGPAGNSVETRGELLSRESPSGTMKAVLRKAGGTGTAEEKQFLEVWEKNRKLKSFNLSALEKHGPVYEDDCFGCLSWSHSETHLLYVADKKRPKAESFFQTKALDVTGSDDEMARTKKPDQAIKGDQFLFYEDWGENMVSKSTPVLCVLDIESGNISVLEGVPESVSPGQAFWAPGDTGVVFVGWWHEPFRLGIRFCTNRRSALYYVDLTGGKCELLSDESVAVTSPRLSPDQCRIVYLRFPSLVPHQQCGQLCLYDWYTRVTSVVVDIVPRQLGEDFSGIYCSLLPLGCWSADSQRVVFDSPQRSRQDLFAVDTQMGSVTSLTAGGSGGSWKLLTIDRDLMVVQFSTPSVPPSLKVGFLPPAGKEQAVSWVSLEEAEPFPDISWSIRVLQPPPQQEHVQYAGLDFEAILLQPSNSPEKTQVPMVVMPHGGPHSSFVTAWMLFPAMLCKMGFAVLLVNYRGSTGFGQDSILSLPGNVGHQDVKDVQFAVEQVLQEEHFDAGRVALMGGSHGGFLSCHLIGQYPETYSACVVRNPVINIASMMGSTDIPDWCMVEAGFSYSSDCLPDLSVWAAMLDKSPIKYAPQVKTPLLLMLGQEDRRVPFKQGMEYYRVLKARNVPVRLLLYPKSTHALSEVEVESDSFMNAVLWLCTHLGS
Experimental: as §1, §2, §3

APEH in BHK cells = test: APEH activity in BHK cells; assay type: cell-based, Baby Hamster; conditions: 50 and 100 µM, 48 h
Experimental: as §1
(§4) The cells were plated in 12-well plates, to a confluence of 60% for the 24-h incubations, and 40% for 48-h exposure to PIs. These treatments were initiated 24-h after the plating of the cells. Phase-contrast images of the cells were taken just before the lysis of the cells for protein analysis, using a Lica DM6000 inverted microscope.

[4] = test system: proteasome CT-like activity in BHK cells; test: CT-like proteasome activity in BHK cells; assay type: cell-based, Baby Hamster; conditions: 50 and 100 µM, 48 h
Experimental: as §4

[5] = test system: polyubiquitinylated proteins in Caco-2 cells; test: Protein ubiquitinylation in Caco-2 cells (immunoblot); assay type: cell-based, human; conditions: 48 h, 200 µM SsCEI 4 or t10c12-CLA, mixture, 100 µM ebelactone, 10 µM MG132, species 66 kDa to 160 kDa
From the text: The following antibodies were used: anti-APEH antibody (sc-102311; Santa Cruz Biotechnology); anti-NF-κB/p65 antibody (Thermo Scientific); anti-p21Waf1 antibody (Exbio); pan Ab-5 anti-actin antibody (clone ACTN05, Thermo Scientific); and monoclonal antibodies against polyubiquitinylated proteins conjugated with horseradish peroxidase (FK2H, Enzo, Life Science). The ΔF508CFTR-3HA protein was detected with an anti HA monoclonal antibody (Covance).

porcine APEH [6] = target: T1, porcine APEH; test: Time-dependent inhibition of APEH; assay type: biochemical; conditions: pre-incubation at least 20 min at 37°C, then diluted 1:5 into assay mixture with substrate
Experimental: The time-dependent inhibition of SsCEI 4 and t10c12-CLA towards APEH was assessed. Mixtures containing appropriate amounts of each inhibitor and of APEH were pre-incubated for 20 min at 37°C; they were then diluted (1∶5) into the standard assay mixture, which contained the substrate only. The enzymatic activity was followed as described above. Control samples were prepared by pre-incubating the same amounts of APEH without the inhibitors and then diluted in the standard assay mixture.

CCCCC/C=C\C=C\CCCCCCCCC(=O)O [t10c12-CLA, trans10-cis12 CLA]
IC50 (APEHSs; Ac-Leu-pNA 0.1 mM, 25 mM Tris-HCl pH 7.5, pre-incubated 30 min at 80°C, mean ± SD, read-out: IC50 towards APEHSs): 80 ± 2 µM
Ki (APEHSs; Lineweaver–Burk equation, Ac-Leu-pNA, read-out: Ki towards APEHSs): 140 ± 20 µM
inhibition mechanism towards APEHSs (APEHSs; Michaelis–Menten / Lineweaver–Burk analysis): non-competitive
reduction in proteasomal CT-like activity ([1]; 200 µM, 48 h): 40%
dose-dependent decrease of CT-like proteasome activity in Caco-2 cells ([1]; increasing concentrations, printed 'up to 45% of the residual activity' vs untreated): up to 45%
caspase-3 activity increase ([2]; 200 µM, vs untreated, P<0.01): about two
caspase-3 activity, dose response ([2]; increasing concentrations up to 200 µM): improved at increasing doses
toxicity (LDH release) compared with MG132 (Caco-2 cells; 200 µM SsCEI 4 or t10c12-CLA, 100 µM ebelactone, MG132 10 µM): significantly lower than that observed in culture incubated with MG132
cytotoxic effect (LDH activity levels) (Caco-2 cells; up to highest concentration 200 µM): not associated with any cytotoxic effect
decrease of APEH activity in Caco-2 cells (APEH in Caco-2 cells): 50%
IC50 (porcine APEH [3]; Ac-Ala-pNA 1 mM, 50 mM Tris-HCl pH 7.5, pre-incubated 30 min at 37°C, mean ± SD, read-out: IC50 towards porcine APEH): 105 ± 23 µM
inhibition mechanism towards porcine APEH (porcine APEH [3]; Lineweaver-Burk plot): non–competitive
APEH activity in BHK cells (APEH in BHK cells): dose-dependent inhibition
proteasome CT-like activity in BHK cells [4]: dose-dependent inhibition
polyubiquitin conjugates in cell extract [5]: presence of high-molecular-mass immunoreactive species
inhibition of APEH after pre-incubation with the enzyme (porcine APEH [6]): 43%
